Our source for the IC50 values is patent US20220356174A1, “PYRIDIN-2-ONE COMPOUNDS USEFUL AS SMARCA2 ANTAGONISTS” (Epizyme, Inc., priority 2018, published 2022).

The target of the first test is T1, FL-SMARCA2 (full-length human SMARCA2 isoform 1) (Homo sapiens, UniProt P51531).
T1 construct: FLAG tag (YKDDDDK) (C); made in house; host or cells: Sf21 insect cells (baculovirus, pFastBacI)
T1 sequence (P51531 with tags, fused parts or gaps): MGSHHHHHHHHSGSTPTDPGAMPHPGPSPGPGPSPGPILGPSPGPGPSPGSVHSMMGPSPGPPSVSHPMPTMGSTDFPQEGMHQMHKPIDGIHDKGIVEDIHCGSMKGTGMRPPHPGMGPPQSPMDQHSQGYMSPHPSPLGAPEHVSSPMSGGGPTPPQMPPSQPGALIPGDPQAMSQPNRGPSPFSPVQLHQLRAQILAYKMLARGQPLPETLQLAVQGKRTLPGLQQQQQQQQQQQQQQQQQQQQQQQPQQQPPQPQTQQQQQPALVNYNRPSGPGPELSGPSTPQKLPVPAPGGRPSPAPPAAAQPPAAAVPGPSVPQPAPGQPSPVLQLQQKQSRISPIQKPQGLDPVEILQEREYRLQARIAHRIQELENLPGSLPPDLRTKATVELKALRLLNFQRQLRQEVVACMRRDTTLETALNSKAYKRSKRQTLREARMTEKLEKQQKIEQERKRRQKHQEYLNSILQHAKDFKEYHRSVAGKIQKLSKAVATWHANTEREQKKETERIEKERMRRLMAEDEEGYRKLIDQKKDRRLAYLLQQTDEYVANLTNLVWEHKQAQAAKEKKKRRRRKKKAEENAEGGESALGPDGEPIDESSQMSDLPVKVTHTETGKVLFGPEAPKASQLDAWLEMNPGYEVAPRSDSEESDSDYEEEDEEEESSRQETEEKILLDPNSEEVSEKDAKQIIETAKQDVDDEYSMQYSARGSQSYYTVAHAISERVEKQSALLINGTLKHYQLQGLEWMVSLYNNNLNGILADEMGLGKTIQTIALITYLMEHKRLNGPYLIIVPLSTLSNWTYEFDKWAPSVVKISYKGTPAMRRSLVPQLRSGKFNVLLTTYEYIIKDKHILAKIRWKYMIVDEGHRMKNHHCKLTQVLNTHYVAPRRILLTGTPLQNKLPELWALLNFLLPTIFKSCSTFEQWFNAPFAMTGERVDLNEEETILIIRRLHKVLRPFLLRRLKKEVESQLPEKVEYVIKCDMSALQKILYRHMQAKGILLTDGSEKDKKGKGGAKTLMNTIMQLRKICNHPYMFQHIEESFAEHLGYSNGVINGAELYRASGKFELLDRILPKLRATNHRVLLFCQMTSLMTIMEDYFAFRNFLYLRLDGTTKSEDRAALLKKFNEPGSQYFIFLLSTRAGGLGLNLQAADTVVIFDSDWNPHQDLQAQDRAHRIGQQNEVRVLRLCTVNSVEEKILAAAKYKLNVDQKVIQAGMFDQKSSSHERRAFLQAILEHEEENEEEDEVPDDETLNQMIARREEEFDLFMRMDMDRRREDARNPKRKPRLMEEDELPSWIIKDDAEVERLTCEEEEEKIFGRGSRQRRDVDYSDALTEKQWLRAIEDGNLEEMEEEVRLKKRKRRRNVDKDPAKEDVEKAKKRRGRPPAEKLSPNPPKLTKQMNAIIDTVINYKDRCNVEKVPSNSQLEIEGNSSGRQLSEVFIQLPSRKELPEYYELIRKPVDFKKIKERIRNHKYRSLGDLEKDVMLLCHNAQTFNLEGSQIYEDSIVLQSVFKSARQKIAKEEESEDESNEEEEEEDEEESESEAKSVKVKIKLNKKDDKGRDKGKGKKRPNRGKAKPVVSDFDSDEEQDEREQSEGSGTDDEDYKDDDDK
Description: SMARCA2 ATPase activity assay (ADP-Glo, chicken mononucleosome substrate). The class given is biochemical. The settings on record: Table 3c.1; ATPase assay, enzyme 5 nM, ATP 250 uM, chicken mononucleosome 10 nM, 30 min preincubation.
Turning to `N#Cc1sc(C(=O)Nc2cc(F)c(=O)n(CC(F)F)c2)cc1C#CC1COC1` [Compound 177c], the IC50 stood at 0.0127 µM.
As to `CC(=O)Nc1cc(C#Cc2cc(C(=O)Nc3cc(F)c(=O)n(CC(F)F)c3)sc2Cl)ccn1` [Compound 143c], the IC50 amounted to 0.00608 µM.
Same read-out and setting: under `CNC(=O)c1cc(C#Cc2cc(C(=O)Nc3cc(F)c(=O)n(CC(F)F)c3)sc2Cl)ccn1` [Compound 130c] stands 0.0166 µM.
Consider `O=C(Nc1cc(F)c(=O)n(CC(F)F)c1)c1cc(C#C[C@H]2CCOC2)c(Cl)s1` [Compound 78c], for which the IC50 turned out to be 0.0983 µM.
The same measure, in the same setting: under `O=C(Nc1cc(F)c(=O)n(CC(F)F)c1)c1cc(C#Cc2ccccn2)c(Cl)s1` [Compound 81c] stands 0.0798 µM; under `O=C(Nc1cc(F)c(=O)n(CC(F)F)c1)c1cc(/C=C/c2cccnc2)c(Cl)s1` [Compound 95c], 0.603 µM.
With `O=C(Nc1cc(F)c(=O)n(CC(F)F)c1)c1cc(C#Cc2cnccn2)c(Cl)s1` [Compound 40c], the IC50 is 0.0995 µM.
On the same count and under the same terms, the value for `O=C(Nc1cc(F)c(=O)n(CC(F)F)c1)c1cc(C#Cc2cocn2)c(Cl)s1` [Compound 136c] was 0.0263 µM; that for `Cn1ccc(C#Cc2cc(C(=O)Nc3cc(F)c(=O)n(CC(F)F)c3)sc2Cl)n1` [Compound 144c] was 0.0201 µM.
The compound `O=C(Nc1cc(F)c(=O)n(CC(F)F)c1)c1cc(C(F)(F)F)c(Cl)s1` [Compound 37c] registered an IC50 of 0.482 µM.

The same test, now with this note: Table 3d.1; ATPase assay, enzyme 5 nM, ATP 250 uM, chicken mononucleosome 10 nM, 30 min preincubation; read-out: FL-SMARCA2 IC>50.
With `Cc1cc(C(=O)Nc2cc(F)c(=O)n(CC(F)F)c2)sc1C(F)(F)F` [Compound 80d], the IC50 came to 0.224 µM.
`N#Cc1cc(C(=O)Nc2cc(F)c(=O)n(CC(F)F)c2)sc1C(F)F` [Compound 69d]: the IC50 stood at 0.0266 µM.

In the next test the test system is A549 cells. Description: High-throughput proliferation (HTP) assay for A549 cells (CellTiter-Glo, 7 days). Conditions: Homo sapiens, 168 h, read-out: A549 SMARCA2 IC50. Type of test: cell-based. On the procedure:
Thawing vials: A549 cells (ATCC #CCL-185™) were thawed from a cryovial containing approximately 1.6×10^6 cells frozen in 70% F12K medium, 20% HI-FBS and 10% DMSO. Cells were thawed by submerging the bottom half of the vial in a 37° C. water bath and gently flicked until almost thawed. The cells were transferred into a 15 mL conical tube containing 9 mL of F12K medium+10% HI-FBS and then centrifuged at 200×g for 4 min before drawing off the media without disturbing the cell pellet in order to remove the DMSO. The cells were resuspended again in 15 mL of F12K fresh complete media+10% HI-FBS and grown up in a T75 flask at 37° C. with 5% CO2 Incubator. Viability was measured to obtain baseline.
Frozen stock vials preparation: The cell culture was transferred to a 50 mL conical tube, spun down to remove medium, and resuspended at 1-2×10^6 cells/mL in complete medium containing 10% DMSO. The culture was then stored for 24 hours at −80 degree C., (with the initial rate of freezing is −1 degree C. per minute in a freezing container), then transferred and stored in liquid nitrogen.
(§1) Routine subculture: Sub-confluent cultures (70-80%) were split every 4 days, seeding out at 1-2×10^6 cells/75 cm^2.
Day 0: Assay ready plates were prepared by dispensing 50 nL of compound or DMSO in the appropriate wells of 384-well white CulturPlates using Echo550. Using the Multiflo, A549 cells were plated at 50 μL/well in F12K complete media+10% HI-FBS+1% pen/strep at cell density determined [1,250 cells/mL (62.5 cells/well)] from growth curve.
Treated cells were incubated at 37° C., 5% CO2, relative humidity >90% for 7 days. CellTiter-Glo (CTG) ATP detection reagent was prepared according to manufacturer's specifications. Cell assay plates were removed from the incubator and brought to room temperature (RT). Using the MultiDrop liquid handler, 30 μL of CTG were added per well. Plates were placed on the multidrop dispenser shake for 5 seconds at room temperature (RT). Plates were incubated for 30 minutes in the dark at RT before measuring luminescence using the Envison2104.
Data analysis: Using the DMSO control wells as the 0% inhibition (high signal) control and the 10 μM Doxorubicin control wells as the 100% inhibition (low signal) control, percent inhibition EC50s (inflection point) and IC50 s were calculated for the compound dose responses.
Regarding `Cc1cc(C(=O)Nc2cc(F)c(=O)n(CC(F)F)c2)sc1C(F)(F)F` [Compound 80d], the IC50 was more than 10 µM.
The same measure, in the same setting: the value for `N#Cc1sc(C(=O)Nc2cc(F)c(=O)n(CC(F)F)c2)cc1C#CC1COC1` [Compound 177c] was 1.37 µM; that for `N#Cc1cc(C(=O)Nc2cc(F)c(=O)n(CC(F)F)c2)sc1C(F)F` [Compound 69d] was 2.04 µM; that for `CC(=O)Nc1cc(C#Cc2cc(C(=O)Nc3cc(F)c(=O)n(CC(F)F)c3)sc2Cl)ccn1` [Compound 143c] was 0.458 µM.
On to `CNC(=O)c1cc(C#Cc2cc(C(=O)Nc3cc(F)c(=O)n(CC(F)F)c3)sc2Cl)ccn1` [Compound 130c], for which the IC50 is 1.21 µM.
On to `O=C(Nc1cc(F)c(=O)n(CC(F)F)c1)c1cc(C#C[C@H]2CCOC2)c(Cl)s1` [Compound 78c], for which the IC50 is 1.57 µM.
Same read-out and setting: the value for `O=C(Nc1cc(F)c(=O)n(CC(F)F)c1)c1cc(C#Cc2ccccn2)c(Cl)s1` [Compound 81c] was 2.01 µM; that for `O=C(Nc1cc(F)c(=O)n(CC(F)F)c1)c1cc(/C=C/c2cccnc2)c(Cl)s1` [Compound 95c] was more than 10 µM.
On the same count and under the same terms, under `O=C(Nc1cc(F)c(=O)n(CC(F)F)c1)c1cc(C#Cc2cnccn2)c(Cl)s1` [Compound 40c] stands 2.83 µM.
Same read-out and setting: under `O=C(Nc1cc(F)c(=O)n(CC(F)F)c1)c1cc(C#Cc2cocn2)c(Cl)s1` [Compound 136c] stands 0.734 µM; under `Cn1ccc(C#Cc2cc(C(=O)Nc3cc(F)c(=O)n(CC(F)F)c3)sc2Cl)n1` [Compound 144c], 1.68 µM.
In the case of `O=C(Nc1cc(F)c(=O)n(CC(F)F)c1)c1cc(C(F)(F)F)c(Cl)s1` [Compound 37c], the IC50 was determined as 9.05 µM.

Another test deals with FL-SMARCA4 (Homo sapiens, UniProt P51532). As to the kind of experiment: SMARCA4 ATPase activity assay (ADP-Glo, chicken mononucleosome substrate). Conditions: FL-SMARCA4 IC50.
Sequence of FL-SMARCA4 (P51532 whole entry): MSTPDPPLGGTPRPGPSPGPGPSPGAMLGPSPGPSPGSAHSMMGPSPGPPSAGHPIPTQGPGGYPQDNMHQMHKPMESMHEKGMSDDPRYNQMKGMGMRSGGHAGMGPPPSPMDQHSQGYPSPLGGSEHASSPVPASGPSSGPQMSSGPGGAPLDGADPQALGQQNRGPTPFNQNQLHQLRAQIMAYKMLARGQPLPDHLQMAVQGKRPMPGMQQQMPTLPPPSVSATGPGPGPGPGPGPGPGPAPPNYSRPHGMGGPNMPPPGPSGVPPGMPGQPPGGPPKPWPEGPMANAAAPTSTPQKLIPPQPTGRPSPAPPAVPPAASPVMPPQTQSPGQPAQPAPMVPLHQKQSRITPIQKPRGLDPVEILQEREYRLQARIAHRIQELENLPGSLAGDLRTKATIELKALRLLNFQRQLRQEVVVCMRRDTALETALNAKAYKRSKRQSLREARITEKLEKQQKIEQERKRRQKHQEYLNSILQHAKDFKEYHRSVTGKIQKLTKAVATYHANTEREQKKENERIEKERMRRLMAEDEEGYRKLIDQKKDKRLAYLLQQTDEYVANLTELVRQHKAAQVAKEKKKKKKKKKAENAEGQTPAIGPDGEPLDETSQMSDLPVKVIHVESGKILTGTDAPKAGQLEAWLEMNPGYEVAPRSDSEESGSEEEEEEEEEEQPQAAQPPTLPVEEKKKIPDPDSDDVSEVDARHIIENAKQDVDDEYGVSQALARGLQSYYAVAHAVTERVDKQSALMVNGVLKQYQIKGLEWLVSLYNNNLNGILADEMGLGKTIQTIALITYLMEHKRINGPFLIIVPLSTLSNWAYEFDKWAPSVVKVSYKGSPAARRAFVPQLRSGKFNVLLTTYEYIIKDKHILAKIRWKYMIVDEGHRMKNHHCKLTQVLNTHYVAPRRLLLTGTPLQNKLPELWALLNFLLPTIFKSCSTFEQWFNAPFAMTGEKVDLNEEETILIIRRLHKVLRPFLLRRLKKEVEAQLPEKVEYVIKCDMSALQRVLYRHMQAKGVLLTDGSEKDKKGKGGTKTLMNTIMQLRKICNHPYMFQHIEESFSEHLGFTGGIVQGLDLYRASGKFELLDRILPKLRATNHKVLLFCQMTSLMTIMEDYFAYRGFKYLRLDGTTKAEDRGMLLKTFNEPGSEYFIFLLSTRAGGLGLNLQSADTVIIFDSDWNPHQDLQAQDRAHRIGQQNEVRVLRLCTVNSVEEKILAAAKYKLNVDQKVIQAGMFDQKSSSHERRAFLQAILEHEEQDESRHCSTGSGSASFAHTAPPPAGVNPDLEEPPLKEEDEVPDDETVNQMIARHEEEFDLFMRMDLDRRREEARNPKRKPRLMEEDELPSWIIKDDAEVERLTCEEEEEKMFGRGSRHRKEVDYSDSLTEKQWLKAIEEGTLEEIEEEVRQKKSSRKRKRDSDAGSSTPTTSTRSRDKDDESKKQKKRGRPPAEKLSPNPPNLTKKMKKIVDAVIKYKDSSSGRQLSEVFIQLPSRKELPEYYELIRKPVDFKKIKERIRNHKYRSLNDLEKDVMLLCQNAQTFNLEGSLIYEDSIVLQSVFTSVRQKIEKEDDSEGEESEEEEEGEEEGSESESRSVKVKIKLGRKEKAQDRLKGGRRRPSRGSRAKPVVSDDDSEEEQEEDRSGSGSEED
For `Cc1cc(C(=O)Nc2cc(F)c(=O)n(CC(F)F)c2)sc1C(F)(F)F` [Compound 80d], the IC50 turned out to be 1.14 µM.
Still for that read-out and setting: the value for `N#Cc1cc(C(=O)Nc2cc(F)c(=O)n(CC(F)F)c2)sc1C(F)F` [Compound 69d] was 0.12 µM.

Still in this test, the particulars now being: FL-SMARCA4 IC>50, Table 3c.2; ATPase assay, enzyme 5 nM, ATP 250 uM, chicken mononucleosome 10 nM, 30 min preincubation.
`N#Cc1sc(C(=O)Nc2cc(F)c(=O)n(CC(F)F)c2)cc1C#CC1COC1` [Compound 177c] gave an IC50 of 0.0797 µM.
Still for that read-out and setting: the value for `CC(=O)Nc1cc(C#Cc2cc(C(=O)Nc3cc(F)c(=O)n(CC(F)F)c3)sc2Cl)ccn1` [Compound 143c] was 0.00817 µM.
Still for that read-out and setting: the value for `CNC(=O)c1cc(C#Cc2cc(C(=O)Nc3cc(F)c(=O)n(CC(F)F)c3)sc2Cl)ccn1` [Compound 130c] was 0.044 µM; that for `O=C(Nc1cc(F)c(=O)n(CC(F)F)c1)c1cc(C#C[C@H]2CCOC2)c(Cl)s1` [Compound 78c] was 0.256 µM; that for `O=C(Nc1cc(F)c(=O)n(CC(F)F)c1)c1cc(C#Cc2ccccn2)c(Cl)s1` [Compound 81c] was 0.198 µM.
`O=C(Nc1cc(F)c(=O)n(CC(F)F)c1)c1cc(/C=C/c2cccnc2)c(Cl)s1` [Compound 95c]: the IC50 was determined as 5.71 µM.
On the same count and under the same terms, under `O=C(Nc1cc(F)c(=O)n(CC(F)F)c1)c1cc(C#Cc2cnccn2)c(Cl)s1` [Compound 40c] stands 0.259 µM; under `O=C(Nc1cc(F)c(=O)n(CC(F)F)c1)c1cc(C#Cc2cocn2)c(Cl)s1` [Compound 136c], 0.117 µM.
The same measure, in the same setting: the value for `Cn1ccc(C#Cc2cc(C(=O)Nc3cc(F)c(=O)n(CC(F)F)c3)sc2Cl)n1` [Compound 144c] was 0.0691 µM.
`O=C(Nc1cc(F)c(=O)n(CC(F)F)c1)c1cc(C(F)(F)F)c(Cl)s1` [Compound 37c]: the IC50 stood at 2.49 µM.

The test system of a further test is H358 cells. Description: High-throughput proliferation (HTP) assay for H358 cells (CellTiter-Glo, 7 days). The class given is cell-based. The settings on record: Homo sapiens, NCI-H358, 168 h, read-out: H358 SMARCA2 IC50. On the procedure: Thawing vials: H358 cells (ATCC #CRL-5807™) were thawed from a cryovial containing approximately 1.6×10^6 cells frozen in 70% RPMI 1640 medium, 20% HI-FBS and 10% DMSO. Cells were thawed by submerging the bottom half of the vial in a 37° C. water bath and gently flicked until almost thawed. The cells were removed and transferred into a 15 mL conical tube containing 9 mL RPMI 1640 medium+10% HI-FBS and then centrifuged 200×g for 4 min before drawing off the media without disturbing the cell pellet to remove the DMSO. The cells were resuspended again in 15 mL of RPMI 1640 fresh complete media+10% HI-FBS and grown up in a T75 flask at 37° C. with 5% CO2 Incubator. Viability was measured to obtain baseline.
Preparing frozen stock vials: Cell density was counted in a stock flask. The culture was transferred to a 50 mL conical tube and spun down to remove medium, and then resuspend at 1-2×10^6 cells/mL in complete medium containing 10% DMSO and transferred to a 1 mL per vial.
as §1
Day 0: Assay ready plates were prepared by dispensing 50 nL of compound stock or DMSO in the appropriate wells of 384-well white CulturPlates using Echo550. Using the Multiflo, H358 cells at 50 μL/well were plated in RPMI 1640 complete media+10% HI-FBS+1% pen/strep at cell density determined [20,000 cells/mL (1,000 cells/well)] from growth curve. Treated cells were inclubated at 37° C., 5% CO2, relative humidity >90% for 7 days. CellTiter-Glo (CTG) ATP detection reagent was prepared according to manufacturer's specifications. Cell assay plates were removed from incubator and bring to room temperature (RT).
Using the MultiDrop liquid handler, 30 μL of CTG were added per well. Plates were placed on the multidrop dispenser shake for 5 seconds at RT. Plates were incubated for 30 minutes in the dark at RT before measuring luminescence using the Envison2104.
Data analysis: Using the DMSO control wells as the 0% inhibition (high signal) control and the 10 uM Doxorubicin control wells as the 100% inhibition (low signal) control, percent inhibition EC50s (inflection point) and IC50s were calculated for the compound dose responses.
In the case of `Cc1cc(C(=O)Nc2cc(F)c(=O)n(CC(F)F)c2)sc1C(F)(F)F` [Compound 80d], the IC50 was more than 10 µM.
On the same count and under the same terms, under `N#Cc1sc(C(=O)Nc2cc(F)c(=O)n(CC(F)F)c2)cc1C#CC1COC1` [Compound 177c] stands more than 10 µM.
For the compound `N#Cc1cc(C(=O)Nc2cc(F)c(=O)n(CC(F)F)c2)sc1C(F)F` [Compound 69d], the IC50 was more than 10 µM.
Still for that read-out and setting: under `CC(=O)Nc1cc(C#Cc2cc(C(=O)Nc3cc(F)c(=O)n(CC(F)F)c3)sc2Cl)ccn1` [Compound 143c] stands more than 10 µM; under `CNC(=O)c1cc(C#Cc2cc(C(=O)Nc3cc(F)c(=O)n(CC(F)F)c3)sc2Cl)ccn1` [Compound 130c], more than 10 µM; under `O=C(Nc1cc(F)c(=O)n(CC(F)F)c1)c1cc(C#C[C@H]2CCOC2)c(Cl)s1` [Compound 78c], more than 10 µM.
For the compound `O=C(Nc1cc(F)c(=O)n(CC(F)F)c1)c1cc(C#Cc2ccccn2)c(Cl)s1` [Compound 81c], the IC50 is more than 10 µM.
`O=C(Nc1cc(F)c(=O)n(CC(F)F)c1)c1cc(/C=C/c2cccnc2)c(Cl)s1` [Compound 95c]: the IC50 was more than 10 µM.
Same read-out and setting: under `O=C(Nc1cc(F)c(=O)n(CC(F)F)c1)c1cc(C#Cc2cnccn2)c(Cl)s1` [Compound 40c] stands more than 10 µM; under `O=C(Nc1cc(F)c(=O)n(CC(F)F)c1)c1cc(C#Cc2cocn2)c(Cl)s1` [Compound 136c], more than 10 µM.
In the case of `Cn1ccc(C#Cc2cc(C(=O)Nc3cc(F)c(=O)n(CC(F)F)c3)sc2Cl)n1` [Compound 144c], the IC50 was more than 10 µM.
The same measure, in the same setting: the value for `O=C(Nc1cc(F)c(=O)n(CC(F)F)c1)c1cc(C(F)(F)F)c(Cl)s1` [Compound 37c] was more than 10 µM.
